# Experimental data published in patent US20050197338A1, “Substituted pyrazole urea compounds for the treatment of inflammation” (priority 2003, published 2005).
# Target: T1, human IKK-2 (rhIKK-2 homodimer) (Homo sapiens, UniProt O14920)
# T1 construct: FLAG (DYKDDDDKD) (C); made in house; host or cells: insect cells (baculovirus, pFastBac)
# T1 sequence (O14920 1-756): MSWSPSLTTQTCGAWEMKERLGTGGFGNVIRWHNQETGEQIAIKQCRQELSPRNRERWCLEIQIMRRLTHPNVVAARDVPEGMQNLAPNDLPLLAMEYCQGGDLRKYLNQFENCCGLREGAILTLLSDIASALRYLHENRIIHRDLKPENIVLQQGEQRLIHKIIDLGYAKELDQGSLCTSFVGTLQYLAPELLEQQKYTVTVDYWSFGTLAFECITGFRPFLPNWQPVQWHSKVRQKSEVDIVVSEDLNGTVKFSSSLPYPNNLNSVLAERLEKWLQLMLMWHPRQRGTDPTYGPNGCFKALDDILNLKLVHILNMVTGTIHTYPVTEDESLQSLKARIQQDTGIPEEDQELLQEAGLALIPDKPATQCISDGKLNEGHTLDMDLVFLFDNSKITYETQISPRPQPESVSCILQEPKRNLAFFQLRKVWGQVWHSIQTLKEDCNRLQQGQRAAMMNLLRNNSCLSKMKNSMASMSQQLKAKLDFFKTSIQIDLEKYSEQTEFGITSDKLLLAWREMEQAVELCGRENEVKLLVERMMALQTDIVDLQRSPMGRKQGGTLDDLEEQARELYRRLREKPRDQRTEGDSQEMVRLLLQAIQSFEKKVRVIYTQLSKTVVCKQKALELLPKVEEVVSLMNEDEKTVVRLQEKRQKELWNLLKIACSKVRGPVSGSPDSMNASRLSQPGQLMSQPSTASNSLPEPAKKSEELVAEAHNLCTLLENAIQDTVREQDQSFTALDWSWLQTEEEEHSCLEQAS
# Assay: IKK-2 Resin Enzyme Assay (Human IKK-2 Enzyme Assay)
# Format: biochemical
# Conditions: human IKK-2, resin enzyme assay; read-out: IC50 (μM) hIKK-2
# In short: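 C-terminally FLAG-tagged human IKK-2 homodimer, baculovirus-expressed in insect cells and anti-FLAG purified. Reaction mix: 5 μM biotinylated IκBα peptide (Ser32/Ser36 region), 1 μM ATP with [γ-33P]ATP, 2 mM MgCl2, 2 mM MnCl2, 10 mM NaF, 1 mM DTT, 25 mM HEPES pH 7.6. Incubated 30 min at 25 °C; IC50 derived.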
row,Compound,IC50 [µM]
1,"NC(=O)Nc1cn(-c2cccc(-c3cccc(C(N)=O)c3)c2)nc1C(N)=O [Example 79, 4-[(aminocarbonyl)amino]-1-[3′-(aminocarbonyl)-1,1′-biphenyl-3-yl]-1H-pyrazole-3-carboxamide]",5.67
2,CN(C)c1ccc(-c2cccc(-n3cc(NC(N)=O)c(C(N)=O)n3)c2)cc1 [Example 61],6.21
3,"NC(=O)COc1ccc(F)cc1-c1ccc(-n2cc(NC(N)=O)c(C(N)=O)n2)cc1 [Example 252, 4-[(aminocarbonyl)amino]-1-[2′-(2-amino-2-oxoethoxy)-5′-fluoro-1,1′-biphenyl-4-yl]-1H-pyrazole-3-carboxamide]",0.492
4,"NC(=O)Nc1cn(-c2ccc(S(=O)(=O)c3ccc(F)cc3)c(Cl)c2)nc1C(N)=O [Example 222, 4-[(aminocarbonyl)amino]-1-{3-chloro-4-[(4-fluorophenyl)sulfonyl]phenyl}-1H-pyrazole-3-carboxamide]",> 20
5,"CCN(CC)C(=O)c1ccc(-c2ccc(-n3cc(NC(N)=O)c(C(N)=O)n3)cc2)cc1 [Example 143, 4-[(aminocarbonyl)amino]-1-{4′-[(diethylamino)carbonyl]-1,1′-biphenyl-4-yl}-1H-pyrazole-3-carboxamide]",3.31
6,"N#CCCNC(=O)c1cccc(-c2cccc(-n3cc(NC(N)=O)c(C(N)=O)n3)c2)c1 [Example 82, 4-[(aminocarbonyl)amino]-1-(3′-{[(2-cyanoethyl)amino]carbonyl}-1,1′-biphenyl-3-yl)-1H-pyrazole-3-carboxamide]",1.19
7,"N#CCOc1ccccc1-c1ccc(-n2cc(NC(N)=O)c(C(N)=O)n2)c(F)c1 [Example 250, 4-[(aminocarbonyl)amino]-1-[2′-(cyanomethoxy)-3-fluoro-1,1′-biphenyl-4-yl]-1H-pyrazole-3-carboxamide]",0.279
8,"NC(=O)Nc1cn(-c2ccc(Sc3ccccc3F)c(Cl)c2)nc1C(N)=O [Example 270, 4-[(aminocarbonyl)amino]-1-{3-chloro-4-[(2-fluorophenyl)thio]phenyl}-1H-pyrazole-3-carboxamide]",3.7
9,"N#CCOc1cccc(-c2ccc(-n3cc(NC(N)=O)c(C(N)=O)n3)cc2)c1 [Example 166, 4-[(aminocarbonyl)amino]-1-[3′-(cyanomethoxy)-1,1′-biphenyl-4-yl]-1H-pyrazole-3-carboxamide]",0.38
10,"Cc1ccc(-c2cccc(-n3cc(NC(N)=O)c(C(N)=O)n3)c2)cc1N [Example 77, 4-[(aminocarbonyl)amino]-1-(3′-amino-4′-methyl-1,1′-biphenyl-3-yl)-1H-pyrazole-3-carboxamide]",0.8
11,"COc1cccc(-c2cccc(-n3cc(NC(N)=O)c(C(N)=O)n3)c2)c1 [Example 343, 4-[(aminocarbonyl)amino]-1-(3′-methoxy-1,1′-biphenyl-3-yl)-1H-pyrazole-3-carboxamide]",5.18
12,"NC(=O)Nc1cn(-c2ccc(-c3cccc(OCc4ncco4)c3)cc2)nc1C(N)=O [Example 254, 4-[(aminocarbonyl)amino]-1-[3′-(1,3-oxazol-2-ylmethoxy)-1,1′-biphenyl-4-yl]-1H-pyrazole-3-carboxamide]",0.352
13,"Cc1cc(-n2cc(NC(N)=O)c(C(N)=O)n2)ccc1-c1ccc(F)cc1OCC#N [Example 244, 1-(2′-Cyanomethoxy-4′-fluoro-2-methyl-biphenyl-4-yl)-4-ureido-1H-pyrazole-3-carboxylic acid amide]",0.866
14,"NC(=O)Nc1cn(-c2cccc(-c3cccc4ccccc34)c2)nc1C(N)=O [Example 360, 4-[(aminocarbonyl)amino]-1-[3-(1-naphthyl)phenyl]-1H-pyrazole-3-carboxamide]",> 20
15,"NC(=O)Nc1cn(-c2cccc(-c3ccc(C(F)(F)F)cc3)c2)nc1C(N)=O [Example 368, 4-[(aminocarbonyl)amino]-1-[4′-(trifluoromethyl)-1,1′-biphenyl-3-yl]-1H-pyrazole-3-carboxamide]",> 20
16,"NC(=O)Nc1cn(-c2cccc(-c3ccc(F)c(Cl)c3)c2)nc1C(N)=O [Example 361, 4-[(aminocarbonyl)amino]-1-(3′-chloro-4′-fluoro-1,1′-biphenyl-3-yl)-1H-pyrazole-3-carboxamide]",> 20
17,"CC(C#N)Oc1cccc(-c2ccc(-n3cc(NC(N)=O)c(C(N)=O)n3)cc2)c1 (centres unmarked) [Example 169, 4-[(aminocarbonyl)amino]-1-[3′-(1-cyanoethoxy)-1,1′-biphenyl-4-yl]-1H-pyrazole-3-carboxamide]",1.83
18,"NC(=O)Nc1cn(-c2ccc(-c3ccc(C(=O)O)c(F)c3)cc2F)nc1C(N)=O [Example 248, 4′-{3-(aminocarbonyl)-4-[(aminocarbonyl)amino]-1H-pyrazol-1-yl}-3,3′-difluoro-1,1′-biphenyl-4-carboxylic acid]",0.386
19,"COc1ccc(Cl)cc1-c1cccc(-n2cc(NC(N)=O)c(C(N)=O)n2)c1 [Example 365, 4-[(aminocarbonyl)amino]-1-(5′-chloro-2′-methoxy-1,1′-biphenyl-3-yl)-1H-pyrazole-3-carboxamide]",11.6
20,"NC(=O)CCc1cccc(-c2ccc(-n3cc(NC(N)=O)c(C(N)=O)n3)cc2)c1 [Example 338, 4-[(aminocarbonyl)amino]-1-[3′-(3-amino-3-oxopropyl)-1,1′-biphenyl-4-yl]-1H-pyrazole-3-carboxamide]",0.62

# Continued, values first:
row,IC50 [µM],Compound
1,1.55,"NC(=O)Nc1cn(-c2ccc(-c3ccc(F)cc3)cc2)nc1C(N)=O [Example 25, 4-[(aminocarbonyl)amino]-1-(4′-fluoro-1,1′-biphenyl-4-yl)-1H-pyrazole-3-carboxamide]"
2,0.175,"NC(=O)Nc1cn(-c2ccc3ccccc3c2)nc1C(N)=O [Example 219, 4-[(aminocarbonyl)amino]-1-(2-naphthyl)-1H-pyrazole-3-carboxamide]"
3,3,"NC(=O)Nc1cn(-c2ccc(-c3ccccc3F)cc2)nc1C(N)=O [Example 30, 4-[(aminocarbonyl)amino]-1-(2′-fluoro-1,1′-biphenyl-4-yl)-1H-pyrazole-3-carboxamide]"
4,0.159,"CC(C)c1ccc(-n2cc(NC(N)=O)c(C(N)=O)n2)cc1 [Example 216, 4-[(aminocarbonyl)amino]-1-(4-isopropylphenyl)-1H-pyrazole-3-carboxamide]"
5,0.351,"NC(=O)Nc1cn(-c2ccc(-c3ccccc3CO)cc2)nc1C(N)=O [Example 105, 4-[(aminocarbonyl)amino]-1-[2′-(hydroxymethyl)-1,1′-biphenyl-4-yl]-1H-pyrazole-3-carboxamide]"
6,1.06,"NC(=O)Nc1cn(-c2ccc(-c3cccc(O)c3)c(F)c2)nc1C(N)=O [Example 226, 4-[(aminocarbonyl)amino]-1-(2-fluoro-3′-hydroxy-1,1′-biphenyl-4-yl)-1H-pyrazole-3-carboxamide]"
7,1.04,"NC(=O)Nc1cn(-c2ccc(SC3CCCCC3)cc2)nc1C(N)=O [Example 189, 1-(3-carbamoyl-1-(4-(cyclohexylthio)phenyl)-1H-pyrazol-4-yl)urea]"
8,0.229,"Cc1cc(-n2cc(NC(N)=O)c(C(N)=O)n2)ccc1Cl [Example 302, 4-[(aminocarbonyl)amino]-1-(4-chloro-3-methylphenyl)-1H-pyrazole-3-carboxamide]"
9,1.31,"NC(=O)Nc1cn(-c2ccc(F)c(F)c2)nc1C(N)=O [Example 218, 4-[(aminocarbonyl)amino]-1-(3,4-difluorophenyl)-1H-pyrazole-3-carboxamide]"
10,1.63,"NC(=O)Nc1cn(-c2ccc(-c3ccc(O)cc3)cc2)nc1C(N)=O [Example 36, 4-[(aminocarbonyl)amino]-1-(4′-hydroxy-1,1′-biphenyl-4-yl)-1H-pyrazole-3-carboxamide]"
11,> 20,Cc1ccc(-c2ccc(-n3cc(NC(N)=O)c(C(N)=O)n3)cc2)cc1 [Example 103]
12,10.6,"CCc1cc(Br)ccc1-n1cc(NC(N)=O)c(C(N)=O)n1 [Example 281, 4-[(aminocarbonyl)amino]-1-(4-bromo-2-ethylphenyl)-1H-pyrazole-3-carboxamide]"
13,0.75,"NC(=O)Nc1cn(-c2ccc(B(O)O)cc2)nc1C(N)=O [Example 337, 4-{3-(aminocarbonyl)-4-[(aminocarbonyl)amino]-1H-pyrazol-1-yl}phenylboronic acid]"
14,2.54,"NC(=O)Nc1cn(-c2ccc([S+]([O-])C3CCCCC3)cc2)nc1C(N)=O (centres unmarked) [Example 191, 1-(3-carbamoyl-1-(4-(cyclohexylsulfinyl)phenyl)-1H-pyrazol-4-yl)urea]"
15,5.88,"COC(=O)c1cccc(-n2cc(NC(N)=O)c(C(N)=O)n2)c1 [Example 185, methyl 3-{3-(aminocarbonyl)-4-[(aminocarbonyl)amino]-1H-pyrazol-1-yl}benzoate]"
